In patent US9655904B2, “Substituted benzoazepines as toll-like receptor modulators” (VentiRx Pharmaceuticals, Inc., priority 2009, dated 2017):

Legend:
TLR7 = target: T1, TLR7 (Homo sapiens, UniProt Q9NYK1); assay: PBMC assay for TLR7 (IFNα in supernatants by ELISA); assay type: cell-based; set-up: Peripheral blood mononuclear cells (PBMCs) from human blood were isolated; endogenous in cells; host or cells: human PBMCs; settings: human PBMCs incubated with compound overnight, MC50 = concentration at which 50% of maximum induction is seen
T1 sequence (Q9NYK1 27-1049): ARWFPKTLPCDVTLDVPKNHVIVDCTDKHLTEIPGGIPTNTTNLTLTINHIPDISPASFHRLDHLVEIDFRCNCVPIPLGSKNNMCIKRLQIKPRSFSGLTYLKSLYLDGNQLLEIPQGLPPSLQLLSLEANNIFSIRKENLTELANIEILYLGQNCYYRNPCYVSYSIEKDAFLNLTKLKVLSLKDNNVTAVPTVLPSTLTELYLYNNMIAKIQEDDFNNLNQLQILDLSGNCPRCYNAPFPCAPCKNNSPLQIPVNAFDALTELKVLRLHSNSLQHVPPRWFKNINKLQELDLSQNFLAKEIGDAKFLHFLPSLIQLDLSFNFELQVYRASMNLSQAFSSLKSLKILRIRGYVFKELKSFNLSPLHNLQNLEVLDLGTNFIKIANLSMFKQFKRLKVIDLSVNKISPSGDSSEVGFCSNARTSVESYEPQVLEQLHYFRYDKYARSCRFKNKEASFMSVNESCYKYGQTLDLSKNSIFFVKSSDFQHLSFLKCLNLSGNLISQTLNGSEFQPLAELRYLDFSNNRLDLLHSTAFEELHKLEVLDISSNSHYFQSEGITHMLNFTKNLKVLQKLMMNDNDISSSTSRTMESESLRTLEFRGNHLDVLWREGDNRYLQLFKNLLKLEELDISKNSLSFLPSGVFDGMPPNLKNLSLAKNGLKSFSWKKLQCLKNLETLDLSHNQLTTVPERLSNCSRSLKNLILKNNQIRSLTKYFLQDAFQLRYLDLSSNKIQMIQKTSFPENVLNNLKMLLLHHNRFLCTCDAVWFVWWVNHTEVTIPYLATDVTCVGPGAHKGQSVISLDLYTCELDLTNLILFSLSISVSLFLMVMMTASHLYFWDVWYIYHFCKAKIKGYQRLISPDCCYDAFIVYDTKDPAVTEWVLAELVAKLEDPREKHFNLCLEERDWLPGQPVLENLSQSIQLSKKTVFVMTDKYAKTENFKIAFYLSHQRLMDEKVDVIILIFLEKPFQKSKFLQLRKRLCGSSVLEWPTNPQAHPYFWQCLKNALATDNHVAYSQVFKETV
Protocol: (§1) Peripheral blood mononuclear cells (PBMCs) from human blood were isolated using BD Vacutainer Cell Preparation Tubes with sodium citrate. Cells were incubated with compound overnight. TLR8 activity was assayed by measuring the amount of TNFα in supernatants by ELISA. TLR7 activity was assayed by measuring the amount of IFNα in supernatants by ELISA (R&D Systems). […] The results of this assay are shown below in Tables 2 and 3.
(§2) MC50 numbers are represented as factors of ten, for example, + indicates an MC50 value of X 10^4, or a value in the tens of thousands of nanomolar (nM range); ++ indicates an MC50 value of X 10^3, or a value in the thousands; +++ indicates an MC50 value of X 10^2, or a value in the hundreds; and ++++ indicates an MC50 value of X 10^1 or 10^0, or a value in the tens or ones.

TLR8 = target: T2, TLR8 (Homo sapiens, UniProt Q9NR97); assay: PBMC assay for TLR8 (TNFα in supernatants by ELISA); assay type: cell-based; set-up: Peripheral blood mononuclear cells (PBMCs) from human blood were isolated; endogenous in cells; host or cells: human PBMCs; settings: human PBMCs incubated with compound overnight, MC50 = concentration at which 50% of maximum induction is seen
T2 sequence (Q9NR97 27-1041): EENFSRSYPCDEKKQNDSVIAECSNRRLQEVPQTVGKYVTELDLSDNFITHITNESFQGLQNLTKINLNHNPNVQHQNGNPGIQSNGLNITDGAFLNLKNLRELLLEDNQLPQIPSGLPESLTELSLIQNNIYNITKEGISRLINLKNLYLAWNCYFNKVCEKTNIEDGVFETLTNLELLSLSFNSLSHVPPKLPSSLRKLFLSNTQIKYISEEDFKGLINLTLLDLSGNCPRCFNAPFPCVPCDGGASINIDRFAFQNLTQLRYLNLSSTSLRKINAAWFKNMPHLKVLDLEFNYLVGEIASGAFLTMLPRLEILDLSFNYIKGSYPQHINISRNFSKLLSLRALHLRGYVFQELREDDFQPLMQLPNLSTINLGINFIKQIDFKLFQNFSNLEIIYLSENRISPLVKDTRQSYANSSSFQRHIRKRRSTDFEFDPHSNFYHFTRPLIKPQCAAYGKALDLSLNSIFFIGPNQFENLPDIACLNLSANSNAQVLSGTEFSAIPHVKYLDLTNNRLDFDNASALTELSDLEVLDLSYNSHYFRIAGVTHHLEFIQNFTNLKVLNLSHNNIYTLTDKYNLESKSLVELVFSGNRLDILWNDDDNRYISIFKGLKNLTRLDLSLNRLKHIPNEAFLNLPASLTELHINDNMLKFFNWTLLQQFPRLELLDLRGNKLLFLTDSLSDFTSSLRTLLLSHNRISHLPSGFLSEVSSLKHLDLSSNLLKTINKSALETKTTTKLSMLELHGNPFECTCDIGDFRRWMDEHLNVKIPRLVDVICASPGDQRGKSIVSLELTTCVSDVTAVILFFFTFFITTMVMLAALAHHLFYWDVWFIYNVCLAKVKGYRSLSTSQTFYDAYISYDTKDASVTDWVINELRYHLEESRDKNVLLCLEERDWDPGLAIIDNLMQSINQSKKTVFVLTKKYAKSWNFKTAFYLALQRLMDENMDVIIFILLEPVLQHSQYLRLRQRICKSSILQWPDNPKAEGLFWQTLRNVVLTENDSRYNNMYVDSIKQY
Protocol: as §1, §2

Row | EC50 (TLR7) | EC50 (TLR8) | SMILES
1 | 1000 to 10000 nM | 100 to 1000 nM | CCCN(CCC)C(=O)C1=Cc2ccc(-c3ccc(OCC(=O)OCC)cc3)cc2N=C(N)C1 [Compound 197, Ethyl 2-(4-((1E,4E)-2-amino-4-(dipropylcarbamoyl)-3H-benzo[b]azepin-8-yl)phenoxy)acetate]
2 | 10000 to 100000 nM | 1000 to 10000 nM | NC1=Nc2cc(-c3ccc(C(=O)N4CCCC4)cc3)ccc2C=C(C(=O)NOCc2ccccc2)C1 [Compound 116, (1E,4E)-2-amino-N-(benzyloxy)-8-(4-(pyrrolidine-1-carbonyl)phenyl)-3H-benzo[b]azepine-4-carboxamide]
3 | 1000 to 10000 nM | 100 to 1000 nM | CCCN(CCCO)C(=O)C1=Cc2ccc(-c3ccc(CC(=O)OC)cc3)cc2N=C(N)C1 [Compound 213, Methyl 2-(4-((1E,4E)-2-amino-4-((3-hydroxypropyl)(propyl)carbamoyl)-3H-benzo[b]azepin-8-yl)phenyl)acetate]
4 |  | 100 to 1000 nM | CCCN(CC1CCNCC1)C(=O)C1=Cc2ccc(-c3ccc(C(=O)N4CCCC4)cc3)cc2N=C(N)C1 [Compound 113, (1E,4E)-2-amino-N-(piperidin-4-ylmethyl)-N-propyl-8-(4-(pyrrolidine-1-carbonyl)phenyl)-3H-benzo[b]azepine-4-carboxamide]
5 |  | 1 to 100 nM | CCCN(OCc1ccccc1)C(=O)C1=Cc2ccc(-c3ccc(C(=O)N4CCCC4)cc3)cc2N=C(N)C1 [Compound 118, (1E,4E)-2-amino-N-(benzyloxy)-N-propyl-8-(4-(pyrrolidine-1-carbonyl)phenyl)-3H-benzo[b]azepine-4-carboxamide]
6 | 1000 to 10000 nM | 1000 to 10000 nM | CCCN(CCC)C(=O)C1=Cc2ccc(-c3ccc(CCC(=O)OCC)cc3)cc2N=C(N)C1 [Compound 193, Ethyl 3-(4-((1E,4E)-2-amino-4-(dipropylcarbamoyl)-3H-benzo[b]azepin-8-yl)phenyl)propanoate]
7 |  | 1000 to 10000 nM | CCCN(CC1CCCN1)C(=O)C1=Cc2ccc(-c3ccc(C(=O)N4CCCC4)cc3)cc2N=C(N)C1 (stereo not drawn) [Compound 175, (1E,4E)-2-amino-N-propyl-N-(pyrrolidin-2-ylmethyl)-8-(4-(pyrrolidine-1-carbonyl)phenyl)-3H-benzo[b]azepine-4-carboxamide]
8 |  | 1 to 100 nM | CCOC(=O)C1=Cc2ccc(CCCN3CCOCC3)cc2N=C(N)C1 [Compound 200, (1E,4E)-ethyl 2-amino-8-(3-morpholinopropyl)-3H-benzo[b]azepine-4-carboxylate]
9 | 10000 to 100000 nM | 100 to 1000 nM | CCCN(CCC)C(=O)C1=Cc2ccc(-c3ccc(C4COC(=O)O4)cc3)cc2N=C(N)C1 (stereo not drawn) [Compound 225, (1E,4E)-2-amino-8-(4-(2-oxo-1,3-dioxolan-4-yl)phenyl)-N,N-dipropyl-3H-benzo[b]azepine-4-carboxamide]
10 |  | 100 to 1000 nM | CCCN(CCC)C(=O)C1=Cc2ccc(OCc3ccccc3)cc2N=C(N)C1 [Compound 185, (1E,4E)-2-amino-8-(benzyloxy)-N,N-dipropyl-3H-benzo[b]azepine-4-carboxamide]
11 | 10000 to 100000 nM | 1 to 100 nM | CCCN(CCCO)C(=O)C1=Cc2ccc(-c3ccc(CC(=O)OCC(C)C)cc3)cc2N=C(N)C1 [Compound 216, Isobutyl 2-(4-((1E,4E)-2-amino-4-((3-hydroxypropyl)(propyl)carbamoyl)-3H-benzo[b]azepin-8-yl)phenyl)acetate]
12 |  | 100 to 1000 nM | CCCN(CCC)C(=O)C1=Cc2ccc(-c3ccc4c(c3)COC4=O)cc2N=C(N)C1 [Compound 198, (1E,4E)-2-Amino-8-(1-oxo-1,3-dihydroisobenzofuran-5-yl)-N,N-dipropyl-3H-benzo[b]azepine-4-carboxamide]
13 |  | 100 to 1000 nM | CCCN(CCC)C(=O)C1=Cc2ccc(-c3cccc(CC(=O)OCC)c3)cc2N=C(N)C1 [Compound 205, Ethyl 2-(3-((1E,4E)-2-amino-4-(dipropylcarbamoyl)-3H-benzo[b]azepin-8-yl)phenyl)acetate]
14 |  | 100 to 1000 nM | CCCN(CCCO)C(=O)C1=Cc2ccc(-c3ccc(CC(=O)OCc4ccccc4)cc3)cc2N=C(N)C1 [Compound 218, Benzyl 2-(4-((1E,4E)-2-amino-4-((3-hydroxypropyl)(propyl)carbamoyl)-3H-benzo[b]azepin-8-yl)phenyl)acetate]
15 |  | 100 to 1000 nM | CCCN(CCC)C(=O)C1=Cc2ccc(-c3ccc(C(=O)NCCCC(=O)OCc4ccccc4)cc3)cc2N=C(N)C1 [Compound 201, benzyl 4-(4-((1E,4E)-2-amino-4-(dipropylcarbamoyl)-3H-benzo[b]azepin-8-yl)benzamido)butanoate]
16 |  | 100 to 1000 nM | CCCN(CCCO)C(=O)C1=Cc2ccc(-c3ccc4c(c3)COC4=O)cc2N=C(N)C1 [Compound 221, (1E,4E)-2-Amino-N-(3-hydroxypropyl)-8-(1-oxo-1,3-dihydroisobenzofuran-5-yl)-N-propyl-3H-benzo[b]azepine-4-carboxamide]
17 |  | 100 to 1000 nM | CCCN(CCC)C(=O)C1=Cc2ccc(-c3ccc(OS(=O)(=O)C(F)(F)F)cc3)cc2N=C(N)C1 [Compound 226, 4-((1E,4E)-2-amino-4-(dipropylcarbamoyl)-3H-benzo[b]azepin-8-yl)phenyl trifluoromethanesulfonate]
18 |  | 100 to 1000 nM | CCOC(=O)C1=Cc2ccc(OCc3ccccc3)cc2N=C(N)C1 [Compound 148, (1E,4E)-ethyl 2-amino-8-(benzyloxy)-3H-benzo[b]azepine-4-carboxylate]
19 |  | 10000 to 100000 nM | CCCN(CCC)C(=O)C1=Cc2ccc(-c3ccc(OCC(=O)O)cc3)cc2N=C(N)C1 [Compound 196, 2-(4-((1E,4E)-2-Amino-4-(dipropylcarbamoyl)-3H-benzo[b]azepin-8-yl)phenoxy)acetic acid]
20 |  | 100 to 1000 nM | CCCN(CCCS(N)(=O)=O)C(=O)C1=Cc2ccc(-c3ccc(C(=O)N4CCCC4)cc3)cc2N=C(N)C1 [Compound 177, (1E,4E)-2-amino-N-propyl-8-(4-(pyrrolidine-1-carbonyl)phenyl)-N-(3-sulfamoylpropyl)-3H-benzo[b]azepine-4-carboxamide]
21 |  | 1 to 100 nM | CCCN(CCCO)C(=O)C1=Cc2ccc(-c3ccc(CC(=O)OCC4CC4)cc3)cc2N=C(N)C1 [Compound 217, Cyclopropylmethyl 2-(4-((1E,4E)-2-amino-4-((3-hydroxypropyl)(propyl)carbamoyl)-3H-benzo[b]azepin-8-yl)phenyl)acetate]
